According to ChEMBL document CHEMBL5584231, “Rational design of a new short anticancer peptide with good potential for cancer treatment” (Eur J Med Chem, 2024):
Calls of active or inactive are those of the source. The rule behind the calls is not given here.

Experiments:
[1] = test system: MCF7; experiment: Cytotoxicity against human MCF7 cells assessed as cell killing at 1 times IC50 measured within 12 hrs by MTT assay; format: functional, cell-based
[2] = test system: MCF7; experiment: Cytotoxicity against human MCF7 cells assessed as cell killing at 1 times IC50 measured at 24 hrs by MTT assay; format: functional, cell-based
[3] = test system: MCF7; experiment: Cytotoxicity against human MCF7 cells assessed as cell viability at 2 times IC50 measured within 8 hrs by MTT assay; format: functional, cell-based
[4] = test system: MCF7; experiment: Cytotoxicity against human MCF7 cells assessed as cell survival at 2 times IC50 incubated for 12 hrs by MTT assay relative to control; format: functional
[5] = test system: MCF7; experiment: Cytotoxicity against human MCF7 cells assessed as cell survival at 2 times IC50 incubated for 24 hrs by MTT assay relative to control; format: functional
[6] = test system: Cell membrane; experiment: Disruption of cell membrane in human MCF7 cells assessed as LDH release at 2.5 to 40 uM incubated for 1 hr by fluorescence based microplate reader analysis; format: cell membranes; conditions: dose 2.5-40 µM
[7] = test system: Cell membrane; experiment: Induction of morphological changes in cell membrane of human MCF7 cells assessed as effect on normal cell shape with intact membrane surface at 1 to 2 times IC50 incubated for 1 hr by SEM analysis; format: cell membranes
[8] = test system: Cell membrane; experiment: Disruption of cell membrane integrity in human MCF7 cells assessed as increase in PI fluorescence at 1 times IC50 measured after 0 to 120 mins by laser confocal scanning microscopic analysis; format: cell membranes; conditions: time 0-120 min
[9] = test system: Cell membrane; experiment: Disruption of cell membrane integrity in human MCF7 cells assessed as increase in PI fluorescence at 2 times IC50 measured after 0 to 120 mins by laser confocal scanning microscopic analysis; format: cell membranes; conditions: time 0-120 min
[10] = test system: Cell membrane; experiment: Disruption of cell membrane integrity in human MCF7 cells assessed as increase in PI fluorescence at 1 to 2 times IC50 measured after 1 hr by laser confocal scanning microscopic analysis; format: cell membranes
[11] = test system: Cell membrane; experiment: Induction of cell membrane damage in human MCF7 cells assessed as protein leakage at 1 to 2 times IC50 measured after 0.5 to 6 hrs by UV based analysis; format: cell membranes; conditions: time 0.5-6 hrs
[12] = test system: Cell membrane; experiment: Induction of cell membrane damage in human MCF7 cells assessed as nucleic acid leakage at 1 to 2 times IC50 measured after 0.5 to 6 hrs by UV based analysis; format: cell membranes; conditions: time 0.5-6 hrs
[13] = test system: MCF7; experiment: Effect on cell cycle progression in human MCF7 cells at 1 times IC50 measured after 1 hr by PI/RNase staining based flow cytometry analysis; format: functional
[14] = test system: MCF7; experiment: Induction of cell cycle arrest at G2/M phase in human MCF7 cells assessed as increase in cells at G2/M phase at 1 times IC50 measured after 24 hrs by PI/RNase staining based flow cytometry analysis; format: functional
[15] = test system: MCF7; experiment: Induction of apoptosis in human MCF7 cells assessed as live cells at 1 times IC50 measured after 24 hrs by Annexin V-FITC staining based flow cytometry analysis (reference value: 92%); format: functional
[16] = test system: MCF7; experiment: Induction of apoptosis in human MCF7 cells assessed as early apoptotic cells at 1 times IC50 measured after 24 hrs by Annexin V-FITC staining based flow cytometry analysis (reference value: 0.014%); format: functional
[17] = test system: MCF7; experiment: Induction of apoptosis in human MCF7 cells assessed as late apoptotic cells at 1 times IC50 measured after 24 hrs by Annexin V-FITC staining based flow cytometry analysis (reference value: 1.60%); format: functional
[18] = test system: MCF7; experiment: Induction of apoptosis in human MCF7 cells assessed as dead cells at 1 times IC50 measured after 24 hrs by Annexin V-FITC staining based flow cytometry analysis (reference value: 6.41%); format: functional
[19] = test system: MCF7; experiment: Induction of apoptosis in human MCF7 cells assessed as increase in intracellular ROS generation at 1 times IC50 measured after 0 to 360 mins by DCFH-DA staining based analysis; format: functional, cell-based; conditions: time 0-360 min
[20] = test system: MCF7; experiment: Antimigratory activity in human MCF7 cells assessed as reduction in cell migration at 1 times IC50 measured after 24 hrs by scratch-wound healing assay; format: functional, cell-based
[21] = test system: MCF7; experiment: Anti-invasion activity in human MCF7 cells assessed as reduction in number of passing cells on polycarbonate membrane at 1 times IC50 measured after 24 hrs by crystal violet staining based transwell assay; format: functional, cell-based
[22] = test system: 4T1; experiment: Antitumor activity against mouse 4T1 cells implanted in female Balb/c mouse assessed as reduction in tumor growth at 12 micromol/kg, ip administered every other day for 2 weeks and measured every 2 days; format: functional, organism-based; conditions: dose 12.0 µmol/kg
[23] = test system: 4T1; experiment: Antitumor activity against mouse 4T1 cells implanted in female Balb/c mouse assessed as reduction in tumor weight at 12 micromol/kg, ip administered every other day for 2 weeks and measured every 2 days relative to control; format: functional; parameters: scale not given: the % may be the effect or the level left; conditions: dose 12 µmol/kg
[24] = Toxicity in female Balb/c mouse implanted with mouse 4T1 cells assessed as reduction in body weight at 12 micromol/kg, ip administered every other day for 2 weeks and measured every 2 days; format: organism-based; conditions: in vivo, 336 h, dose 12 µmol/kg
[25] = Toxicity in female Balb/c mouse implanted with mouse 4T1 cells assessed as animal death at 12 micromol/kg, ip administered every other day for 2 weeks; format: organism-based; conditions: in vivo, 336 h, dose 12 µmol/kg
[26] = Toxicity in female Balb/c mouse implanted with mouse 4T1 cells assessed as pathological changes in heart at 12 micromol/kg, ip administered every other day for 2 weeks by H and E staining based analysis; format: organism-based; conditions: in vivo, 336 h, dose 12 µmol/kg
[27] = Toxicity in female Balb/c mouse implanted with mouse 4T1 cells assessed as pathological changes in liver at 12 micromol/kg, ip administered every other day for 2 weeks by H and E staining based analysis; format: organism-based; conditions: in vivo, 336 h, dose 12 µmol/kg
[28] = Toxicity in female Balb/c mouse implanted with mouse 4T1 cells assessed as pathological changes in spleen at 12 micromol/kg, ip administered every other day for 2 weeks by H and E staining based analysis; format: organism-based; conditions: in vivo, 336 h, dose 12 µmol/kg
[29] = Toxicity in female Balb/c mouse implanted with mouse 4T1 cells assessed as pathological changes in lung at 12 micromol/kg, ip administered every other day for 2 weeks by H and E staining based analysis; format: organism-based; conditions: in vivo, 336 h, dose 12 µmol/kg
[30] = Toxicity in female Balb/c mouse implanted with mouse 4T1 cells assessed as pathological changes in kidney at 12 micromol/kg, ip administered every other day for 2 weeks by H and E staining based analysis; format: organism-based; conditions: in vivo, 336 h, dose 12 µmol/kg
[31] = test system: 4T1; experiment: Antitumor activity against mouse 4T1 cells implanted in female Balb/c mouse assessed as increase in tumor cell apoptosis at 12 micromol/kg, ip administered every other day for 2 weeks by H and E staining based analysis; format: functional, organism-based; conditions: dose 12.0 µmol/kg
[32] = test system: 4T1; experiment: Antitumor activity against mouse 4T1 cells implanted in female Balb/c mouse assessed as increase in tumor cell necrosis at 12 micromol/kg, ip administered every other day for 2 weeks by H and E staining based analysis; format: functional, organism-based; conditions: dose 12.0 µmol/kg
[33] = Acute toxicity in female Balb/c mouse assessed as reduction in survival rate at 30 mg/kg, ip administered as single dose and measured for 7 days; format: organism-based; conditions: in vivo, 168 h, time 7 day
[34] = Acute toxicity in female Balb/c mouse assessed as reduction in survival rate at 38 to 60 mg/kg, ip administered as single dose and measured for 7 days; format: organism-based; conditions: in vivo, 168 h, dose 38-60 mg/kg, time 7 day
[35] = Acute toxicity in ip dosed female Balb/c mouse administered as single dose and measured for 7 days by karber method; format: organism-based; conditions: in vivo, time 7 day
[36] = Acute toxicity in female Balb/c mouse assessed as heart damage at approximately LD50 administered as single ip dose by H and E staining based analysis; format: organism-based; conditions: in vivo
[37] = Acute toxicity in female Balb/c mouse assessed as shrinking cytoplasm in kidney at approximately LD50 administered as single ip dose by H and E staining based analysis; format: organism-based; conditions: in vivo
[38] = Acute toxicity in female Balb/c mouse assessed as necrosis in kidney at approximately LD50 administered as single ip dose by H and E staining based analysis; format: organism-based; conditions: in vivo

Question: With `CC(=O)O[C@H]1C(=O)[C@@]2(C)[C@H]([C@H](OC(=O)c3ccccc3)[C@]3(O)C[C@H](OC(=O)[C@H](O)[C@@H](NC(=O)c4ccccc4)c4ccccc4)C(C)=C1C3(C)C)[C@]1(OC(C)=O)CO[C@@H]1C[C@@H]2O` [PACLITAXEL] as the compound, how does the Activity [1] read?
Answer: inactive

Question: What about the Activity [2] of the same compound?
Answer: Active

Question: And the Activity [3]?
Answer: inactive

Question: What about the Survival [4] of the same compound?
Answer: ~23.8%

Question: And the Survival [5]?
Answer: ~9.7%

Question: What about the Activity [6] of the same compound?
Answer: inactive

Question: And the Activity [7]?
Answer: inactive

Question: And the Activity [8]?
Answer: inactive

Question: And the Activity [9]?
Answer: inactive

Question: And the Activity [10]?
Answer: inactive

Question: What about the Activity [11] of the same compound?
Answer: inactive

Question: And the Activity [12]?
Answer: inactive

Question: What about the Activity [13] of the same compound?
Answer: inactive

Question: And the Activity [14]?
Answer: Active

Question: What about the Activity [15] of the same compound?
Answer: 30.2%

Question: What about the Activity [16] of the same compound?
Answer: 48.4%

Question: And the Activity [17]?
Answer: 20.3%

Question: What about the Activity [18] of the same compound?
Answer: 1.13%

Question: What about the Activity [19] of the same compound?
Answer: Active

Question: And the Activity [20]?
Answer: Active

Question: What about the Activity [21] of the same compound?
Answer: Active

Question: What about the Activity [22] of the same compound?
Answer: Active

Question: And the Activity [23]?
Answer: 21.6%

Question: And the Activity [24]?
Answer: Non-Toxic

Question: And the Activity [25]?
Answer: Non-Toxic

Question: What about the Activity [26] of the same compound?
Answer: Non-Toxic

Question: What about the Activity [27] of the same compound?
Answer: Non-Toxic

Question: What about the Activity [28] of the same compound?
Answer: Non-Toxic

Question: And the Activity [29]?
Answer: Non-Toxic

Question: What about the Activity [30] of the same compound?
Answer: Non-Toxic

Question: And the Activity [31]?
Answer: Active

Question: What about the Activity [32] of the same compound?
Answer: Active

Question: What about the Activity [33] of the same compound?
Answer: Non-Toxic

Question: And the Activity [34]?
Answer: Toxic

Question: What about the LD50 at 168 h [35] of the same compound?
Answer: 39.7 mg/kg

Question: And the Activity [36]?
Answer: Non-Toxic

Question: And the Activity [37]?
Answer: Toxic

Question: And the Activity [38]?
Answer: Toxic
